Where two headings read alike, the source gives them in different places.
How the values were obtained:
[1] = biological target: T1, kinase domain of human recombinant JAK1 (Homo sapiens, UniProt P23458); test: JAK enzyme biochemical assay (Eurofins CEREP), JAK1; details: ATP at Km, 100 nM substrate peptide, 60 minutes, duplicate
T1 construct: using the kinase domains of human recombinant JAK1, JAK2, JAK3 and TYK2
Method: (§1) JAK enzyme biochemical assays were performed at Eurofins CEREP, France using the kinase domains of human recombinant JAK1, JAK2, JAK3 and TYK2. Each enzyme reaction was carried out with Compound 10 (supplied by Concert Pharmaceuticals) or control, JAK enzyme, 100 nM substrate peptide (LANCE® Ultra U-light JAK-1 peptide) and adenosine triphosphate (ATP; concentration at Km) for 60 minutes. Test compounds were dissolved in DMSO and tested in duplicate. It can be seen that Compound 10 had significant potency for inhibition of JAK enzymes.

[2] = biological target: T2, kinase domain of human recombinant JAK2 (Homo sapiens, UniProt O60674); test: JAK enzyme biochemical assay (Eurofins CEREP), JAK2; details: ATP at Km, 100 nM substrate peptide, 60 minutes, duplicate
T2 construct: using the kinase domains of human recombinant JAK1, JAK2, JAK3 and TYK2
T2 sequence (O60674 849-1124 limits assumed): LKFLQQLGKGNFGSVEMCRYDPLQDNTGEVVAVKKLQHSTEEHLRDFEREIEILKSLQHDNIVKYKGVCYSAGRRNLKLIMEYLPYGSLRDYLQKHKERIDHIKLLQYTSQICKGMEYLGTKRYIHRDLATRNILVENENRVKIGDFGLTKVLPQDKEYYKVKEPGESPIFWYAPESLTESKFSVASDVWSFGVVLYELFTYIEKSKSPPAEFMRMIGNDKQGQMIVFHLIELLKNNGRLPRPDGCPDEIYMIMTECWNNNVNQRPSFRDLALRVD
Method: as §1

[3] = Metabolic stability using human liver microsomes; type: in vitro ADME; details: for half-life at 0.25 μM: human
Method: Materials: Human liver microsomes (20 mg/mL) were obtained from Xenotech, LLC (Lenexa, Kans.). β-nicotinamide adenine dinucleotide phosphate, reduced form (NADPH), magnesium chloride (MgCl2), and dimethyl sulfoxide (DMSO) were purchased from Sigma-Aldrich. Compound 10 and non-deuterated Compound 50 as test compounds were supplied by Concert Pharmaceuticals:
Determination of Metabolic Stability: 7.5 mM stock solutions of test compounds were prepared in DMSO. The 7.5 mM stock solutions were diluted to 12.5 μM in acetonitrile (ACN). The human liver microsomes were diluted in 0.1 M potassium phosphate buffer, pH 7.4, containing 3 mM MgCl2. The diluted microsomes were added to wells of a 96-well deep-well polypropylene plate in triplicate. A 10 μL aliquot of the 12.5 μM test compound was added to the microsomes and the mixture was pre-warmed for 10 minutes. Reactions were initiated by addition of pre-warmed NADPH solution. The final reaction volume was 0.5 mL and contained […] human liver microsomes, 0.25 μM test compound, and 2 mM NADPH in 0.1 M potassium phosphate buffer, pH 7.4, and 3 mM MgCl2. The reaction mixtures were incubated at 37° C., and 50 μL aliquots were removed at 0, 10, 20, 30, 45, and 60 minutes and added to shallow-well 96-well plates which contained 50 μL of ice-cold ACN with internal standard to stop the reactions. The plates were stored at 4° C. for 20 minutes after which 100 μL of water was added to the wells of the plate before centrifugation to pellet precipitated proteins. Supernatants were transferred to another 96-well plate and analyzed for amounts of parent remaining by LC-MS/MS using an Applied Bio-systems mass spectrometer.
Data analysis: The in vitro t1/2s for test compounds were calculated from the slopes of the linear regression of % parent remaining (ln) vs incubation time relationship. in vitro t1/2=0.693/k k=−[slope of linear regression of % parent remaining(ln) vs incubation time] Data analysis was performed using Microsoft Excel Software.

[4] = biological target: T3, kinase domain of human recombinant JAK3 (Homo sapiens, UniProt P52333); test: JAK enzyme biochemical assay (Eurofins CEREP), JAK3; details: ATP at Km, 100 nM substrate peptide, 60 minutes, duplicate
T3 construct: using the kinase domains of human recombinant JAK1, JAK2, JAK3 and TYK2
T3 sequence (P52333 822-1111 limits assumed): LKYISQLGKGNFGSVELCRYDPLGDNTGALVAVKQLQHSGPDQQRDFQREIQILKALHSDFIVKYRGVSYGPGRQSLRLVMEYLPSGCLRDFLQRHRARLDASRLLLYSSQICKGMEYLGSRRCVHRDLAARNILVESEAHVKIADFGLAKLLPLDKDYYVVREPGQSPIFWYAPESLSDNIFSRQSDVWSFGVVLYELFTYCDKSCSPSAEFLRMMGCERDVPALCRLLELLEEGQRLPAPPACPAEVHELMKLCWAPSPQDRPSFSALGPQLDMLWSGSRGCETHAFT
Method: as §1

[5] = biological target: T4, kinase domain of human recombinant TYK2 (Homo sapiens, UniProt P29597); test: JAK enzyme biochemical assay (Eurofins CEREP), TYK2; details: ATP at Km, 100 nM substrate peptide, 60 minutes, duplicate
T4 construct: using the kinase domains of human recombinant JAK1, JAK2, JAK3 and TYK2
T4 sequence (P29597 897-1176 limits assumed): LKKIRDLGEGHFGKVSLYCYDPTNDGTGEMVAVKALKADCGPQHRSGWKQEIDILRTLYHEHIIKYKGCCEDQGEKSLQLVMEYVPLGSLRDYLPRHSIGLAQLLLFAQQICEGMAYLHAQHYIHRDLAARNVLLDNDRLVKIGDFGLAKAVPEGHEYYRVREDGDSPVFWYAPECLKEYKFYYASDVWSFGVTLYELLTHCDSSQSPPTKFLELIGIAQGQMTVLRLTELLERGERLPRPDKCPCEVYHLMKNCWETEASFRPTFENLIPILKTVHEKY
Method: as §1

[6] = pH 7.4, 5 mg/mL human liver microsomes, 0.25 μM test compound, 2 mM NADPH, 37° C., experiment 2498, read-out: t1/2 EXP# 2498
[7] = pH 7.4, 5 mg/mL human liver microsomes, 0.25 μM test compound, 2 mM NADPH, 37° C., experiment 2500, read-out: t1/2 EXP# 2500
[8] = pH 7.4, 5 mg/mL human liver microsomes, 0.25 μM test compound, 2 mM NADPH, 37° C., experiment 2501, read-out: t1/2 EXP# 2501
[9] = pH 7.4, human liver microsomes, average of EXP# 2498, 2500, 2501, read-out: t1/2 Average

T1 sequence (P23458 875-1153 limits assumed): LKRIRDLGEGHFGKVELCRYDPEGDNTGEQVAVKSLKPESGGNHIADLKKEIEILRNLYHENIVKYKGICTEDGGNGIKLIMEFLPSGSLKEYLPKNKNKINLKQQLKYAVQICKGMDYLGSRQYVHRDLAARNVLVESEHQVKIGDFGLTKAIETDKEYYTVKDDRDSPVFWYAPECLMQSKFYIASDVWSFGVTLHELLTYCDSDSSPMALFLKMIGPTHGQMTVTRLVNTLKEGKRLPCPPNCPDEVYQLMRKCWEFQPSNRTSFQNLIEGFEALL

| SMILES | IC50 [1] [nM] | IC50 [2] [nM] | Average % diff. in t1/2 (longer half-life than non-deuterated Compound 50) ([3]; Compound 10 versus Compound 50, average t1/2) [%] | half-life at 0.25 μM [3, 6] [h] | half-life at 0.25 μM [3, 7] [h] | half-life at 0.25 μM [3, 8] [h] | half-life at 0.25 μM [3, 9] [h] | IC50 [4] [nM] | IC50 [5] [nM] |
| --- | --- | --- | --- | --- | --- | --- | --- | --- | --- |
| [2H]C1([2H])C([C@@H](CC(N)=O)n2cc(-c3ncnc4[nH]ccc34)cn2)C([2H])([2H])C([2H])([2H])C1([2H])[2H] [Compound 10] | 63.9 | 34 | 176 | 1.6 | 4.5 | 4.97 | 3.68 | 226 | 368 |
| NC(=O)C[C@H](C1CCCC1)n1cc(-c2ncnc3[nH]ccc23)cn1 [Compound 50, reference compound] |  |  |  | 0.822 | 1.33 | 1.87 | 1.33 |  |  |

— patent US11919907B2, “Deuterated JAK inhibitor and uses thereof” (Sun Pharmaceutical Industries, Inc., priority 2020, dated 2024)
